Source: patent publication US9994644B2, “mAB 2 anti-Met antibody” (Agency for Science, Technology and Research, priority 2013, dated 2018)
Blank lines part the entries; values can stand above or below the molecule they belong to.

Experiments:
[1] = test system: mAb 2; test: Alanine scan ELISA and mAb 2 titration against peptides; type: binding, murine; settings: for Increase mAb 2 binding in ascending order: titration of purified mAb 2 against peptides, 1 = least binding; for mAb 2 binding to alanine-substituted peptide: 0.05 μg/mL mAb 2, 1 mM DTT
Experimental: Variations of peptides O28 and O29, where each amino acid residue was sequentially substituted for an alanine residue, were synthesised. Streptavidin-coated plates (Pierce/Thermo Scientific, #15520) were blocked with 3% BSA/PBS at room temperature. The peptides were dissolved in DMSO and stored according to manufacturer's recommendation. Streptavidin-coated plates were coated with each peptide (5 μg/mL) overnight at room temperature. Wells were washed before hybridoma supernatant or purified monoclonal antibody was added to the each well. HRP-conjugated anti-mouse antibody was added to detect bound monoclonal antibodies. ELISA substrate (Bio-Rad #172-1067) solution was prepared freshly according to the manufacturer's instructions and added to the wells. Colour change was monitored by eye and the reaction was stopped by adding 100 mM sulphuric acid. Absorbance was read at 450 nm in a microplate reader (SPECTRAmax PLUS^384, Molecular Device, U.S.A.). The crystal structure of c-Met extracellular domain, accession number 1 SHY, was obtained from Protein Data Base (PDB). Computer imaging of the epitopes were analysed by PyMol (DeLano Scientific LLC, U.S.A.) software.
To identify residues within peptides O28 and O29 that are crucial for mAb 2-Met interaction, an alanine scan was performed. Variations of peptide O28 and O29, where each amino acid residue was sequentially substituted for an alanine residue, were synthesised (Table 3). Peptides P1 to P16 (with the SEQ II) NO: […]) and P17 to P31. (with the SEQ ID NO: 40 to 56) were derived from the original peptide O28 and O29 respectively. Using the same ELISA-based assay described above, synthesised peptides were added to streptavidin-coated wells and purified mAb 2 was added to each peptide containing well. mAb 2 binding was determined by absorbance reading at […]. […] Peptide O27, peptide O1 and no peptide were used as negative controls.
The substituted amino acid residues in these peptides are thus involved in mAb 2 epitope. […] This is supported by the loss of mAb 2 binding due to the substitution of proline by alanine in peptides P14, P25 and P10. To determine which residues play a more crucial role in mAb 2 binding, mAb 2 was titrated against the peptides (FIG. 12B). […] These residues are not consecutive residues.

[2] = test system: caspase activation in SNU-5 cells; test: Caspase-Glo 3/7 caspase activation assay; type: cell-based, human; settings: SNU-5, 72 hrs; mAb 10 μg/mL, SU11274 5 μM
Experimental: (§1) In order to determine if these antibodies have any physiological effects on tumour cells, 10 μg/mL of mAb was added to SNU-5 cells. […] This indicates SU11274 mode of mechanism is by activation of caspase which in turn result in apoptosis of SNU-5 tumour cells.
(§2) CellTiter-Glo® luminescent cell viability assay and Caspase-Glo® 3/7 Assay (Promega, U.S.A.) were used to determine cell viability and caspase activation respectively. SNU-5 cells (1×10^5 cells) were seeded in each 96-well and treated for 72 hrs before analysis. Cell viability and caspase activation were performed according to manufacturer's protocol. Luminescence was read using the EnVision plate reader (PerkinElmer, U.S.A.).

[3] = molecular target: c-Met (Homo sapiens, UniProt P08581); settings: background statement; cited from earlier work
Sequence of c-Met (Homo sapiens, UniProt P08581) (P08581 25-307): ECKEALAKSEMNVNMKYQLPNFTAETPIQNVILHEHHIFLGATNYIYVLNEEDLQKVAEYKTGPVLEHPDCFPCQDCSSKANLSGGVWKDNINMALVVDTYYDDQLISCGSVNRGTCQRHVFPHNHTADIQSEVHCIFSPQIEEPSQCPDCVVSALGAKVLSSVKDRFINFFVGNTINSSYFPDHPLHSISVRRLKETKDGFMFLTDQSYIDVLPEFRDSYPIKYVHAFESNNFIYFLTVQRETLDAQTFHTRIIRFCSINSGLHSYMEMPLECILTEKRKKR
Sequence of c-Met (Homo sapiens, UniProt P08581) (P08581 308-1390): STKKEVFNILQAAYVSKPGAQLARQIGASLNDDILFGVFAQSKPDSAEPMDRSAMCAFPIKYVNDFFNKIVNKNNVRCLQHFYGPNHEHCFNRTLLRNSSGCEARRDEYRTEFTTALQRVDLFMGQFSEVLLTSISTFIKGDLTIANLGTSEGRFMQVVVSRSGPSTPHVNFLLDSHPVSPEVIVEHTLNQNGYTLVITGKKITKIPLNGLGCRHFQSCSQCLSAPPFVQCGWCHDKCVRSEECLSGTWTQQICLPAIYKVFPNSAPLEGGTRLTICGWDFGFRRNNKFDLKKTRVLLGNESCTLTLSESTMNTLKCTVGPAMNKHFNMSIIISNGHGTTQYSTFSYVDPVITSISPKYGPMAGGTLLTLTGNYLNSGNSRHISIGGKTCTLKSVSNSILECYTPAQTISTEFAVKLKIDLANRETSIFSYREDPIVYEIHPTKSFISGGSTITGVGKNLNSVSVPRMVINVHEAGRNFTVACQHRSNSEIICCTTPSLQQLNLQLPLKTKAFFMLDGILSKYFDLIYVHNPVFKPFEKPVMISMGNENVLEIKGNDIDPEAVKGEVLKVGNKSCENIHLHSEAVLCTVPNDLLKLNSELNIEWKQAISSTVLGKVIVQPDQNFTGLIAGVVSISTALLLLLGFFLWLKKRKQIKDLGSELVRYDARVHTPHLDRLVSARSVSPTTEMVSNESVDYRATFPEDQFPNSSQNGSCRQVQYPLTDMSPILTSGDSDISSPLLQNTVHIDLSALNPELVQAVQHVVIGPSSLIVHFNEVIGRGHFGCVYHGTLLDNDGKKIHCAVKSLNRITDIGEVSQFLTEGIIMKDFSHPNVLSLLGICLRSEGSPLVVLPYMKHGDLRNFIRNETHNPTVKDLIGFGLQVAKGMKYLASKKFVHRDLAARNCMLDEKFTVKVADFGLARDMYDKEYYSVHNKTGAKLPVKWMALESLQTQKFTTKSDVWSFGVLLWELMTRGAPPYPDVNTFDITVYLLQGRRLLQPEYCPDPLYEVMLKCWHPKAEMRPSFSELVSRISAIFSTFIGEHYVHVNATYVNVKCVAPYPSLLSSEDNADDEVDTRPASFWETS

[4] = test system: c-Met; settings: background statement; cited from earlier work
[5] = test system: SNU-5 cells; test: CellTiter-Glo luminescent cell viability assay; type: cell-based, human; settings: SNU-5, 72 hrs; mAb 10 μg/mL, SU11274 5 μM
Experimental: as §1, §2

[6] = test system: HaCaT cells; test: Cell scatter assay; type: cell-based; settings: 10 ng/mL HGF, controls
Experimental: Cell scattering is one of the biological hallmarks of c-Met activation. Agonist bivalent monoclonal antibodies targeting c-Met would activate c-Met and cause cells to become motile and disperse. Here, we examine the effects of purified anti-α-chain c-Met monoclonal antibodies on cell scatter. HaCaT cells were seeded at low density and allowed to grow until colonies formed. Cells were serum-starved for 24 hrs before incubating with 1 μg/mL monoclonal antibodies for 24 hrs. Cells were then fixed and stained with crystal violet. As a control, cell scatter of HaCaT cells was induced with 10 ng/mL of HGF (FIG. 5). […] Anti-HGF antibody and SU11274 were used as controls. SU11274 is a small molecule inhibitor of c-Met.
100-200 HaCaT cells were seeded in 24-well plates and allowed to grow until small colonies were formed (approximately 7 days). Cells were serum-starved for 24 hrs. Cells were incubated with purified monoclonal antibodies (1 μg/mL) for 24 hrs before rinsing twice in cold PBS and fixing in ice-cold methanol. Cells were then stained in 1% crystal-violet (Sigma-Aldrich) solution. Cell staining was observed using Zeiss Axiovert 25 inverted microscope and pictures were taken using a Canon EOS 1000 D camera.

- Increase mAb 2 binding in ascending order [1]: 11
Molecule: QIEEPSQCPDCVVSA [O29, pepscan peptide of human c-Met α-chain]

- Increase mAb 2 binding in ascending order [1]: 11
Molecule: CIFSPQIEEPSQCPD [O28, pepscan peptide of human c-Met α-chain]

- mAb 2 binding to alanine-substituted peptide [1]: failed to bind
Molecule: CIFSPQIAEPSQCPD [P8, alanine-substituted variant of peptide O28]

- mAb 2 binding to alanine-substituted peptide [1]: failed to bind
- Increase mAb 2 binding in ascending order [1]: 9
Molecule: QIEAPSQCPDCVVSA [P20, alanine-substituted variant of peptide O29]

- mAb 2 binding to alanine-substituted peptide [1]: failed to bind
- Increase mAb 2 binding in ascending order [1]: 7
Molecule: CIFSPQIEEASQCPD [P10, alanine-substituted variant of peptide O28]

- mAb 2 binding to alanine-substituted peptide [1]: failed to bind
- Increase mAb 2 binding in ascending order [1]: 8
Molecule: CIFSPQAEEPSQCPD [P7, alanine-substituted variant of peptide O28]

- mAb 2 binding to alanine-substituted peptide [1]: failed to bind
- Increase mAb 2 binding in ascending order [1]: 4
Molecule: CIFSPQIEAPSQCPD [P9, alanine-substituted variant of peptide O28]

- mAb 2 binding to alanine-substituted peptide [1]: failed to bind
- Increase mAb 2 binding in ascending order [1]: 6
Molecule: QIAEPSQCPDCVVSA [P19, alanine-substituted variant of peptide O29]

- mAb 2 binding to alanine-substituted peptide [1]: failed to bind
Molecule: AIFSPQIEEPSQCPD [P1, alanine-substituted variant of peptide O28]

Molecule: Cc1[nH]c(/C=C2\C(=O)Nc3ccc(S(=O)(=O)N(C)c4cccc(Cl)c4)cc32)c(C)c1C(=O)N1CCN(C)CC1 [SU11274]
- caspase activation [2]: high caspase activation
- inhibition of c-Met activation [3]: extremely successful
- activity against specific c-Met mutations [4]: ineffective
- cell viability [5]: significant reduction
- HGF-induced cell scatter [6]: remained circular

- mAb 2 binding to alanine-substituted peptide [1]: failed to bind
Molecule: CIFSPQIEEPSQCAD [P14, alanine-substituted variant of peptide O28]

- mAb 2 binding to alanine-substituted peptide [1]: failed to bind
- Increase mAb 2 binding in ascending order [1]: 5
Molecule: AIEEPSQCPDCVVSA [P17, alanine-substituted variant of peptide O29]

Molecule: COc1cc2c(Oc3ccc(-c4cnc(Cc5ccccc5)n(C)c4=O)cc3F)ccnc2cc1OCCCN1CCOCC1 [AM7]
- inhibition of c-Met activation [3]: extremely successful

- mAb 2 binding to alanine-substituted peptide [1]: failed to bind
- Increase mAb 2 binding in ascending order [1]: 3
Molecule: QIEEPSQCADCVVSA [P25, alanine-substituted variant of peptide O29]

Molecule: Cc1[nH]c(/C=C2\C(=O)Nc3ccc(S(=O)(=O)Cc4c(Cl)cccc4Cl)cc32)c(C)c1C(=O)N1CCC[C@@H]1CN1CCCC1 [PHA-665752]
- inhibition of c-Met activation [3]: extremely successful

- mAb 2 binding to alanine-substituted peptide [1]: failed to bind
- Increase mAb 2 binding in ascending order [1]: 10
Molecule: CIFSPQIEEPSQCPA [P15, alanine-substituted variant of peptide O28]

B1: MetMab: monovalent chimeric antibody targeted against c-Met (antibody, chains of the INN, looked up, V domains shown)
VH: EVQLVESGGGLVQPGGSLRLSCAASGYTFTSYWLHWVRQAPGKGLEWVGMIDPSNSDTRFNPNFKDRFTISADTSKNTAYLQMNSLRAEDTAVYYCATYRSYVTPLDYWGQGTLVTVSS
VL: DIQMTQSPSSLSASVGDRVTITCKSSQSLLYTSSQKNYLAWYQQKPGKAPKLLIYWASTRESGVPSRFSGSGSGTDFTLTISSLQPEDFATYYCQQYYAYPWTFGQGTKVEIK
modifications: one-armed monovalent
notes: monovalent chimeric antibody targeted against c-Met
- agonist/antagonist activity towards c-Met [3]: antagonist
